For 43 compounds, inhibition and IC50 results are on record in ChEMBL document CHEMBL4808195, “Discovery of heterocyclic substituted dihydropyrazoles as potent anticancer agents” (Bioorg Med Chem Lett, 2021).

By inhibition is commonly meant the drop in the measured response relative to a control, in per cent. The term IC50 denotes the concentration that inhibits the measured activity by half.

One assay relates to MDA-MB-231. Briefly: Anticancer activity against human MDA-MB-231 cells assessed as inhibition of cell growth at 10 uM measured by SRB method. The format is functional. On the technique in general: The SRB assay estimates cell density from bound dye.
Assay [1] concerns HCC1806. Briefly: Anticancer activity against human HCC1806 cells assessed as inhibition of cell growth at 10 uM measured by SRB method. Format: functional.
The next assay deals with NCI-H1975. In words: Anticancer activity against human NCI-H1975 cells assessed as inhibition of cell growth at 10 uM measured by SRB method. The format is functional.
The subject of a further assay is HeLa. In words: Anticancer activity against human HeLa cells assessed as inhibition of cell proliferation. Format: functional, cell-based.
A further assay concerns HCT-116. Briefly: Anticancer activity against human HCT-116 cells assessed as inhibition of cell proliferation. Format: functional, cell-based.
Assay [2] has as its system HCC1806. Briefly: Anticancer activity against human HCC1806 cells assessed as inhibition of cell proliferation. Format: functional, cell-based.
Another assay relates to A549. Briefly: Anticancer activity against human A549 cells assessed as inhibition of cell proliferation. Format: functional, cell-based.

As to `CN(C)c1ccc(C2CC(c3ccc(-n4ccnc4)cc3)=NN2C(=O)Cc2ccccc2)cc1` (configuration not stated), the inhibition at 10 µM in the assay with MDA-MB-231 is 7.2%; in the assay with HCC1806 [1], 2%; with NCI-H1975 it was -5.5%.
On to `CN(C)c1ccc(C2CC(c3ccc(-n4cncn4)cc3)=NN2S(=O)(=O)c2ccc(Br)cc2)cc1` (configuration not stated), for which the inhibition at 10 µM was 10.4% in the assay on MDA-MB-231, 26.3% with HCC1806 [1] and -0.6% in the assay on NCI-H1975.
For `Cc1ccc(S(=O)(=O)N2N=C(c3ccc(-n4cncn4)cc3)CC2c2ccc(N(C)C)cc2)cc1` (configuration not stated), the inhibition at 10 µM came to 20.7% in the assay with MDA-MB-231, 27.7% in the assay on HCC1806 [1] and 20% in the assay on NCI-H1975.
For `CN1CCN(c2ccc(C3=NN(S(=O)(=O)C4CC4)C(c4ccc(N(C)C)cc4)C3)cc2)CC1` (configuration not stated) the same measures were 3.7%, 4.7% and 0.2%.
For `CN(C)c1ccc(C2CC(c3ccc(-n4cncn4)cc3)=NN2C(=O)c2ccc(F)cc2)cc1` (configuration not stated) the same measures were 12.5%, 15.6% and -1.1%.
In the same order, the values of `CN(C)c1ccc(C2CC(c3ccc(-n4cncn4)cc3)=NN2C(=O)/C=C/c2ccccc2)cc1` (configuration not stated) are 8.5%, -3.7% and -2.3%.
On to `Cc1ccc(S(=O)(=O)N2N=C(c3ccc(N4CCN(C)CC4)cc3)CC2c2ccc(N(C)C)cc2)cc1` (configuration not stated), for which the results for the inhibition at 10 µM in the assay with MDA-MB-231, with HCC1806 [1] and with NCI-H1975 were 10.7%, 32.2% and 38.1%, respectively.
Turning to `CN(C)c1ccc(C2CC(c3ccc(-n4ccnc4)cc3)=NN2C(=O)c2ccc(C(F)(F)F)cc2)cc1` (configuration not stated), the inhibition at 10 µM worked out at 17.9% with MDA-MB-231, 28% in the assay with HCC1806 [1] and 15% in the assay on NCI-H1975.
In the same order, the values of `CN1CCN(c2ccc(C3=NN(C(=O)c4ccc(F)cc4)C(c4ccc(N(C)C)cc4)C3)cc2)CC1` (configuration not stated) are 3.5%, 31.8% and 32.2%.
In the same order, the values of `CN(C)c1ccc(C2CC(c3ccc(-n4cncn4)cc3)=NN2C(=O)Cc2ccccc2)cc1` (configuration not stated) are 2.9%, -6.9% and -4%.
`CN1CCN(c2ccc(C3=NN(C(=O)/C=C/c4ccccc4)C(c4ccc(N(C)C)cc4)C3)cc2)CC1` (configuration not stated): the inhibition at 10 µM in the assay with MDA-MB-231 was 35.9%; with HCC1806 [1] it was 71%; with NCI-H1975, 81%. Also, the IC50 was above 10 µM in the assay on HeLa, above 10 µM in the assay on HCT-116, 9.05 µM in the assay with HCC1806 [2] and above 10 µM in the assay on A549.
On to `CN(C)c1ccc(C2CC(c3ccc(-n4cncn4)cc3)=NN2S(=O)(=O)c2ccc(OC(F)(F)F)cc2)cc1` (configuration not stated), for which the inhibition at 10 µM in the assay with MDA-MB-231 turned out to be 18.5%; in the assay on HCC1806 [1], 25.2%; with NCI-H1975, 11.1%.
For `COC(=O)CC(=O)N1N=C(c2ccc(-n3cncn3)cc2)CC1c1ccc(N(C)C)cc1` (configuration not stated) the same measures were 6.8%, -7.8% and 1.5%.
On to `CN1CCN(c2ccc(C3=NN(S(=O)(=O)c4ccc(C(F)(F)F)cc4)C(c4ccc(N(C)C)cc4)C3)cc2)CC1` (configuration not stated), for which the inhibition at 10 µM in the assay on MDA-MB-231 was determined as 12.1%; with HCC1806 [1] it was 27%; in the assay on NCI-H1975 it was 18.9%.
For `CC(=O)N1N=C(c2ccc(N3CCN(C)CC3)cc2)CC1c1ccc(N(C)C)cc1` (configuration not stated) the same measures were -1%, -0.8% and -1.9%.
For `CN(C)c1ccc(C2CC(c3ccc(-n4cncn4)cc3)=NN2S(=O)(=O)c2ccc(C(F)(F)F)cc2)cc1` (configuration not stated) the same measures were 15.3%, 37% and 5.5%.
For the compound `CN(C)c1ccc(C2CC(c3ccc(-n4cncn4)cc3)=NN2C(=O)c2cc(Cl)cc(Cl)c2)cc1` (configuration not stated), the inhibition at 10 µM with MDA-MB-231 is 9.4%; with HCC1806 [1], 5.3%; in the assay with NCI-H1975, 8.4%.
In the same order, the values of `CN1CCN(c2ccc(C3=NNC(c4ccc(N(C)C)cc4)C3)cc2)CC1` (configuration not stated) are 11.4%, 31.2% and 2.4%.
In the case of `CN1CCN(c2ccc(C3=NN(S(=O)(=O)c4ccc(F)cc4)C(c4ccc(N(C)C)cc4)C3)cc2)CC1` (configuration not stated), the inhibition at 10 µM is 15.7% with MDA-MB-231, 92.3% in the assay on HCC1806 [1] and 95.7% in the assay with NCI-H1975. Moreover, the IC50 in the assay on HeLa is above 10 µM; with HCT-116, above 10 µM; in the assay on HCC1806 [2], 6.1 µM; in the assay on A549, 9.6 µM.
With `CN(C)c1ccc(C2CC(c3ccc(-n4cncn4)cc3)=NN2C(=O)CCCl)cc1` (configuration not stated), the inhibition at 10 µM in the assay with MDA-MB-231 is 3.7%; with HCC1806 [1] it was -3.4%; in the assay with NCI-H1975 it was -0.7%.
On to `CN1CCN(c2ccc(C3=NN(S(C)(=O)=O)C(c4ccc(N(C)C)cc4)C3)cc2)CC1` (configuration not stated), for which the figures for the inhibition at 10 µM in the assay with MDA-MB-231, in the assay on HCC1806 [1] and with NCI-H1975 were 0.6%, -18.5% and -1.3%, respectively.
For `COC(=O)CC(=O)N1N=C(c2ccc(N3CCN(C)CC3)cc2)CC1c1ccc(N(C)C)cc1` (configuration not stated) the same measures were -0.4%, -8.3% and -2.2%.
For `CN(C)c1ccc(C2CC(c3ccc(-n4ccnc4)cc3)=NN2S(C)(=O)=O)cc1` (configuration not stated) the same measures were 12%, 11.3% and -3.8%.
As for `Cc1ccc(S(=O)(=O)N2N=C(c3ccc(-n4ccnc4)cc3)CC2c2ccc(N(C)C)cc2)cc1` (configuration not stated), the inhibition at 10 µM in the assay with MDA-MB-231 was 50.8%; in the assay with HCC1806 [1], 66%; in the assay with NCI-H1975, 50.5%.
For `CN(C)c1ccc(C2CC(c3ccc(-n4ccnc4)cc3)=NN2S(=O)(=O)c2ccc([N+](=O)[O-])cc2)cc1` (configuration not stated) the same measures were 41.5%, 46.6% and 53%.
In the same order, the values of `CN(C)c1ccc(C2CC(c3ccc(-n4cncn4)cc3)=NN2S(=O)(=O)c2ccc(F)cc2)cc1` (configuration not stated) are 12.1%, 24.1% and -0.5%.
For `Cc1ccc(C(=O)N2N=C(c3ccc(N4CCN(C)CC4)cc3)CC2c2ccc(N(C)C)cc2)cc1` (configuration not stated) the same measures were -0.7%, -2.5% and -0.4%.
As for `CN1CCN(c2ccc(C3=NN(C(=O)Cc4ccccc4)C(c4ccc(N(C)C)cc4)C3)cc2)CC1` (configuration not stated), the inhibition at 10 µM was 1.9% in the assay on MDA-MB-231, 1% in the assay with HCC1806 [1] and -2.8% in the assay on NCI-H1975.
For `CN1CCN(c2ccc(C3=NN(S(=O)(=O)c4ccc(OC(F)(F)F)cc4)C(c4ccc(N(C)C)cc4)C3)cc2)CC1` (configuration not stated) the same measures were 10.6%, 70.8% and 26.5%.
For `CC(=O)N1N=C(c2ccc(-n3ccnc3)cc2)CC1c1ccc(N(C)C)cc1` (configuration not stated) the same measures were 5%, -9.7% and -2.1%.
In the same order, the values of `CN(C)c1ccc(C2CC(c3ccc(-n4cncn4)cc3)=NN2S(C)(=O)=O)cc1` (configuration not stated) are 7.8%, 10.8% and -3.1%.
As to `C=C(C)C(=O)N1N=C(c2ccc(-n3ccnc3)cc2)CC1c1ccc(N(C)C)cc1` (configuration not stated), the values for the inhibition at 10 µM in the assay on MDA-MB-231, with HCC1806 [1] and with NCI-H1975 were 4.3%, 1.6% and -3.7%, respectively.
Consider `CN(C)c1ccc(C2CC(c3ccc(-n4ccnc4)cc3)=NN2S(=O)(=O)c2ccc(C#N)cc2)cc1` (configuration not stated), for which the inhibition at 10 µM amounted to 7.1% in the assay with MDA-MB-231, 4.7% with HCC1806 [1] and 0.7% in the assay on NCI-H1975.
For `CN1CCN(c2ccc(C3=NN(C(=O)CCCl)C(c4ccc(N(C)C)cc4)C3)cc2)CC1` (configuration not stated) the same measures were 2.4%, 1.7% and -0.2%.
For the compound `CC(=O)N1N=C(c2ccc(-n3cncn3)cc2)CC1c1ccc(N(C)C)cc1` (configuration not stated), the inhibition at 10 µM in the assay with MDA-MB-231 was 7.4%; in the assay with HCC1806 [1] it was 11%; with NCI-H1975, -0.3%.
`CN(C)c1ccc(C2CC(c3ccc(-n4cncn4)cc3)=NN2)cc1` (configuration not stated): the results for the inhibition at 10 µM in the assay on MDA-MB-231, with HCC1806 [1] and in the assay with NCI-H1975 were 7%, 6.8% and -3.3%, respectively.
For `CN(C)c1ccc(C2CC(c3ccc(-n4cncn4)cc3)=NN2C(=O)c2ccc(C(F)(F)F)cc2)cc1` (configuration not stated) the same measures were 16.7%, 7% and 11.5%.
In the same order, the values of `CN(C)c1ccc(C2CC(c3ccc(-n4ccnc4)cc3)=NN2)cc1` (configuration not stated) are 7.6%, -20.9% and 0.1%.
Regarding `CN(C)c1ccc(C2CC(c3ccc(-n4ccnc4)cc3)=NN2C(=O)c2cc(Cl)cc(Cl)c2)cc1` (configuration not stated), the inhibition at 10 µM with MDA-MB-231 was determined as 48.8%; in the assay with HCC1806 [1], 44.5%; with NCI-H1975, 58.7%.
For `CN(C)c1ccc(C2CC(c3ccc(-n4ccnc4)cc3)=NN2C(=O)c2ccc(F)cc2)cc1` (configuration not stated) the same measures were 9.4%, 7.1% and -3.5%.
As to `COC(=O)CC(=O)N1N=C(c2ccc(-n3ccnc3)cc2)CC1c1ccc(N(C)C)cc1` (configuration not stated), the figures for the inhibition at 10 µM in the assay with MDA-MB-231, in the assay with HCC1806 [1] and in the assay with NCI-H1975 were 2.3%, 2.1% and -0.1%, respectively.
As for `CN(C)c1ccc(C2CC(c3ccc(-n4cncn4)cc3)=NN2S(=O)(=O)c2ccc(C#N)cc2)cc1` (configuration not stated), the inhibition at 10 µM came out at 32.8% in the assay on MDA-MB-231, 35.1% with HCC1806 [1] and 22.6% in the assay on NCI-H1975.
For `CN(C)c1ccc(C2CC(c3ccc(-n4ccnc4)cc3)=NN2C(=O)CCCl)cc1` (configuration not stated) the same measures were 2.1%, -5.2% and -2.5%.
